Data on 21 compounds can be found in patent US20250122182A1 (Isosterix, Inc., priority 2023, published 2025).

In this experiment the target is Recombinant KAT6A/MOZ (488-778) protein (Homo sapiens (Human), UniProt Q92794). The experiment can be described thus: KAT6A AlphaLISA Inhibition Screening Assay. In kind it is biochemical. To be noted: for inhibition at 1 µM: read-out: Average Kat6A % inhibition @ 1 μM; for inhibition at 1 µM / Average Kat6A % inhibition @ 1 μM: 1 μM test compound; for inhibition at 10 µM: read-out: Average Kat6A % inhibition @ 10 μM; for inhibition at 10 µM / Average Kat6A % inhibition @ 10 μM: 10 μM test compound. On the procedure:
The Kat6a inhibitory activity of test compounds was determined using an Alpha Screen-based detection method. The assay reactions were conducted in a volume of 10 μL in Alpha Plate, White 384 well plate (cat #6008280, Perkin Elmer). The enzymatic reactions were performed in assay buffer pH 8.0 (50 mM Tris-HCl, 0.1 mM EDTA, 0.01% Tween-20, 1 mM Dithiothreitol, 0.1% BSA (fatty acid free) and 330 nM TSA (Trichostatin A)). 10 μL reaction volume consisting of 25 nM of Recombinant KAT6A/MOZ (488-778) protein (Active motif, Catalog #81223), 400 nM Acetyl coenzyme A (Catalog #A2056, Sigma), 200 nM of Histone H3 peptide [(amino acids 1-21), biotin-labeled (BPS Biosciences, Catalog #52011)]. Test compounds were screened at different doses starting with 10 μM, 3 fold dilution and 10 point Dose response curve. Enzyme and compounds solution were pre-incubated in assay plate for 60 or 10 min at room temperature then substrate and Acetyl coenzyme A solution were added to the plate. After addition, the plate was sealed with adhesive seals and incubated for 120 minutes at room temperature.
After 120 minutes of incubation, […] of AlphaLISA anti-acetyl-Lysine acceptor beads (Perkin Elmer, Catalog #AL143C) were added to the plate and it was incubated for 60 minutes at room temperature. Then […] of Alpha Streptavidin donor beads (Perkin Elmer, Catalog #6760002S) were added to the plate which was further incubated for 60 minutes at room temperature. After incubation, the alpha signal was recorded by using Perkin Elmer Envision multi-mode reader. Percent inhibition of enzyme activity by test compounds were determined relative to vehicle control.
(In general: Alpha assays give light when donor and acceptor beads are brought close together.)

Recombinant KAT6A/MOZ (488-778) protein, sequence (Q92794 488-778): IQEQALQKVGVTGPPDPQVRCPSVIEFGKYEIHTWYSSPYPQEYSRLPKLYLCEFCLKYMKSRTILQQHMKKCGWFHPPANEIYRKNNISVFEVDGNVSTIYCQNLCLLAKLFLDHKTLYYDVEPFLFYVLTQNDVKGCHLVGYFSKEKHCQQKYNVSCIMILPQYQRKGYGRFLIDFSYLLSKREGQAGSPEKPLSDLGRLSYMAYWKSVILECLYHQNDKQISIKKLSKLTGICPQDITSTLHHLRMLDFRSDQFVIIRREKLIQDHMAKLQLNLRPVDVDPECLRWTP

By inhibition is commonly meant the drop in the measured response relative to a control, in per cent. Take `CCc1ccc(OC)c(S(=O)(=O)Nc2noc3cc(Cn4cc(CNC(=O)OCCNC(C)=O)cn4)cc(OC)c23)c1` [Syn. Ex. 48, 2-acetamidoethyl ((1-((3-((5-ethyl-2-methoxyphenyl)sulfonamido)-4-methoxybenzo[d]isoxazol-6-yl)methyl)-1H-pyrazol-4-yl)methyl)carbamate]: the inhibition at 1 µM stood at 96% and the inhibition at 10 µM was 100%.

`C#CC(=O)NCc1cnn(Cc2cc(OC)c3c(NS(=O)(=O)c4cc(CC)ccc4OCc4nn[nH]n4)noc3c2)c1` [Syn. Ex. 70, N-((1-((3-((2-((2H-tetrazol-5-yl)methoxy)-5-ethylphenyl)sulfonamido)-4-methoxybenzo[d]isoxazol-6-yl)methyl)-1H-pyrazol-4-yl)methyl)propiolamide]: the inhibition at 1 µM was 100% and the inhibition at 10 µM was determined as 100%.

As to `CCc1ccc(OCc2nnco2)c(S(=O)(=O)Nc2noc3cc(Cn4cc(CNC(=O)OC)cn4)cc(OC)c23)c1` [Syn. Ex. 127, methyl ((1-((3-((2-((1,3,4-oxadiazol-2-yl)methoxy)-5-ethylphenyl)sulfonamido)-4-methoxybenzo[d]isoxazol-6-yl)methyl)-1H-pyrazol-4-yl)methyl)carbamate], the inhibition at 1 µM stood at 101% and the inhibition at 10 µM worked out at 100%.

With `C=CC(=O)NCc1cnn(Cc2cc(OC)c3c(NS(=O)(=O)c4cc(CC)ccc4OC)noc3c2)c1` [Syn. Ex. 42, N-((1-((3-((5-ethyl-2-methoxyphenyl)sulfonamido)-4-methoxybenzo[d]isoxazol-6-yl)methyl)-1H-pyrazol-4-yl)methyl) acrylamide], the inhibition at 1 µM worked out at 93% and the inhibition at 10 µM was 100%.

On to `CCc1ccc(OC)c(S(=O)(=O)Nc2noc3cc(Cn4cc(CNC(=O)OC)cn4)cc(OC)c23)c1` [Syn. Ex. 17, methyl ((1-((3-((5-ethyl-2-methoxyphenyl)sulfonamido)-4-methoxybenzo[d]isoxazol-6-yl)methyl)-1H-pyrazol-4-yl)methyl)carbamate], for which the inhibition at 1 µM was found to be 99% and the inhibition at 10 µM is 100%.

Turning to `COC(=O)NCc1cnn(Cc2cc(OC)c3c(NS(=O)(=O)c4cc(C)cc5cccnc45)noc3c2)c1` [Syn. Ex. 130, methyl ((1-((4-methoxy-3-((6-methylquinoline)-8-sulfonamido)benzo[d]isoxazol-6-yl)methyl)-1H-pyrazol-4-yl)methyl)carbamate], the “Average Kat6A % inhibition @ 1 μM” value was determined as 100% and the “Average Kat6A % inhibition @ 10 μM” value is given as 102%.

In the case of `C=C(F)C(=O)NCc1cnn(Cc2cc3onc(NS(=O)(=O)c4cc(CC)ccc4OC)c3c3c2CCCO3)c1` [Syn. Ex. 96, N-((1-((9-((5-ethyl-2-methoxyphenyl)sulfonamido)-3,4-dihydro-2H-chromeno[8,7-d]isoxazol-5-yl)methyl)-1H-pyrazol-4-yl)methyl)-2-fluoroacrylamide], the inhibition at 1 µM came out at 100% and the inhibition at 10 µM came out at 100%.

As for `CCc1ccc(OCc2ccc(F)cc2)c(S(=O)(=O)Nc2noc3cc(Cn4cc(CNC(=O)OC)cn4)cc(OC)c23)c1` [Syn. Ex. 122, methyl ((1-((3-((5-ethyl-2-((4-fluorobenzyl)oxy)phenyl)sulfonamido)-4-methoxybenzo[d]isoxazol-6-yl)methyl)-1H-pyrazol-4-yl)methyl)carbamate], the inhibition at 1 µM was 100% and the inhibition at 10 µM amounted to 100%.

Regarding `C=C(F)C(=O)NCc1cnn(Cc2cc(OC)c3c(NS(=O)(=O)c4cc(CC)ccc4OCc4cnn[nH]4)noc3c2)c1` [Syn. Ex. 114, N-((1-((3-((2-((1H-1,2,3-triazol-5-yl)methoxy)-5-ethylphenyl)sulfonamido)-4-methoxybenzo[d]isoxazol-6-yl)methyl)-1H-pyrazol-4-yl)methyl)-2-fluoroacrylamide], the inhibition at 1 µM was determined as 100% and the inhibition at 10 µM is 100%.

As to `COc1ccc(C(C)C)cc1S(=O)(=O)Nc1noc2cc(Cn3cc(CNS(C)(=O)=O)cn3)cc(OC)c12` [Syn. Ex. 38, 5-isopropyl-2-methoxy-N-(4-methoxy-6-((4-(methylsulfonamidomethyl)-1H-pyrazol-1-yl)methyl)benzo[d]isoxazol-3-yl)benzenesulfonamide], the inhibition at 1 µM stood at 100% and the inhibition at 10 µM was determined as 99%.

In the case of `COC(=O)NCc1cnn(Cc2cc(OC)c3c(NS(=O)(=O)c4cc5c(cc4OC)CCO5)noc3c2)c1` [Syn. Ex. 126, methyl ((1-((4-methoxy-3-((5-methoxy-2,3-dihydrobenzofuran)-6-sulfonamido)benzo[d]isoxazol-6-yl)methyl)-1H-pyrazol-4-yl)methyl)carbamate], the “Average Kat6A % inhibition @ 1 μM” value was found to be 101% and the “Average Kat6A % inhibition @ 10 μM” value is 100%.

On to `CCc1ccc(OC)c(S(=O)(=O)Nc2noc3cc(Cn4cc(CNC(=O)NC)cn4)cc(OC)c23)c1` [Syn. Ex. 91, 5-ethyl-2-methoxy-N-(4-methoxy-6-((4-((3-methylureido)methyl)-1H-pyrazol-1-yl)methyl)benzo[d]isoxazol-3-yl)benzenesulfonamide], for which the inhibition at 1 µM came to 99% and the inhibition at 10 µM worked out at 100%.

Consider `COC(=O)NCc1cnn(Cc2cc(OC)c3c(NS(=O)(=O)c4cc5c(cc4OC)CCCC5)noc3c2)c1` [Syn. Ex. 139, methyl ((1-((4-methoxy-3-((3-methoxy-5,6,7,8-tetrahydronaphthalene)-2-sulfonamido)benzo[d]isoxazol-6-yl)methyl)-1H-pyrazol-4-yl)methyl)carbamate], for which the “Average Kat6A % inhibition @ 1 μM” value is listed as 119% and the “Average Kat6A % inhibition @ 10 μM” value was determined as 114%.

For the compound `CC#CC(=O)NCc1ccc(Oc2cc(OC)c3c(NS(=O)(=O)c4cc(CC)ccc4OC)noc3c2)nc1` [Syn. Ex. 57, N-((6-((3-((5-ethyl-2-methoxyphenyl)sulfonamido)-4-methoxybenzo[d]isoxazol-6-yl)oxy)pyridin-3-yl)methyl)but-2-ynamide], the inhibition at 1 µM came to 70% and the inhibition at 10 µM was determined as 100%.

As to `COC(=O)NCc1cnn(Cc2cc3onc(NS(=O)(=O)c4ccccc4OC)c3cc2OC)c1` [Syn. Ex. 145, methyl ((1-((5-methoxy-3-((2-methoxyphenyl)sulfonamido)benzo[d]isoxazol-6-yl)methyl)-1H-pyrazol-4-yl)methyl)carbamate], the inhibition at 1 µM was 108% and the inhibition at 10 µM came to 108%.

In the case of `C#CC(=O)N1Cc2cn(Cc3cc(OC)c4c(NS(=O)(=O)c5cc(Cl)ccc5OC)noc4c3)nc2C1` [Syn. Ex. 2, 5-chloro-2-methoxy-N-(4-methoxy-6-((5-propioloyl-5,6-dihydropyrrolo[3,4-c]pyrazol-2(4H)-yl)methyl)benzo[d]isoxazol-3-yl)benzenesulfonamide], the inhibition at 1 µM is 71% and the inhibition at 10 µM came out at 100%.

Turning to `COc1ccccc1S(=O)(=O)Nc1noc2cc(Cn3cc(CNS(C)(=O)=O)cn3)cc(OC)c12` [Syn. Ex. 6, 2-methoxy-N-(4-methoxy-6-((4-(methylsulfonamidomethyl)-1H-pyrazol-1-yl)methyl)benzo[d]isoxazol-3-yl) benzenesulfonamide], the “Average Kat6A % inhibition @ 1 μM” value came out at 99% and the “Average Kat6A % inhibition @ 10 μM” value came to 100%.

Consider “N-[[2-[[4-methoxy-3-[(6-methoxyindan-5-yl)sulfonylamino]-1,2-benzoxazol-6-yl]oxy]thiazol-5-yl]methyl]carbamate [Syn. Ex. 148]”, for which the “Average Kat6A % inhibition @ 1 μM” value turned out to be 115% and the “Average Kat6A % inhibition @ 10 μM” value was 117%.

With `C=C(F)C(=O)NCc1cnn(Cc2cc(OC)c3c(NS(=O)(=O)c4cc(OC)ccc4OC)noc3c2)c1` [Syn. Ex. 41, N-((1-((3-((2,5-dimethoxyphenyl)sulfonamido)-4-methoxybenzo[d]isoxazol-6-yl)methyl)-1H-pyrazol-4-yl)methyl)-2-fluoroacrylamide], the inhibition at 1 µM came to 87% and the inhibition at 10 µM was 100%.

On to `C=C(F)C(=O)NCc1cnn(Cc2cc(OC)c3c(NS(=O)(=O)c4cc5c(cc4OC)CCC5)noc3c2)c1` [Syn. Ex. 30, 2-fluoro-N-((1-((4-methoxy-3-((6-methoxy-2,3-dihydro-1H-indene)-5-sulfonamido)benzo[d]isoxazol-6-yl)methyl)-1H-pyrazol-4-yl)methyl)acrylamide], for which the “Average Kat6A % inhibition @ 1 μM” value amounted to 100% and the “Average Kat6A % inhibition @ 10 μM” value came to 100%.

`CCc1ccc(OCC#N)c(S(=O)(=O)Nc2noc3cc(Cn4cc(CNC(=O)OC)cn4)cc(OC)c23)c1` [Syn. Ex. 44, methyl ((1-((3-((2-(cyanomethoxy)-5-ethylphenyl)sulfonamido)-4-methoxybenzo[d]isoxazol-6-yl)methyl)-1H-pyrazol-4-yl)methyl)carbamate]: the inhibition at 1 µM came out at 97% and the inhibition at 10 µM stood at 100%.
